Results from article PMC3723252, “Trypanocidal Activity of Thioamide-Substituted Imidazoquinolinone: Electrochemical Properties and Biological Effects” (Evidence-based Complementary and Alternative Medicine : eCAM, 2013).
Where two headings read alike, the source gives them in different places.

What was measured:
[1] = system: bloodstream trypomastigotes; assay: Trypanocidal effect on bloodstream trypomastigotes (24 h, mouse blood); assay type: cell-based; conditions: Trypanosoma cruzi, % lysed parasites
Description: (§1) Trypanosoma cruzi epimastigotes (Tulahuen strain) were grown as previously described. Bloodstream trypomastigotes were obtained from infected CF1 mice by cardiac puncture. Tulahuen strain expressing the β-galactosidase gene was kindly provided by Dr Buckner (University of Washington, USA).
The trypanocidal effects of C1, C2, C3, D and Bnz were also tested on bloodstream trypomastigotes according to a standard WHO protocol slightly modified. Briefly, mouse blood containing trypomastigotes was treated with different concentrations of each compound (0.30 to 350 μM) or Bnz (0.38 to 38 μM). Plates were incubated for 24 h, and surviving parasites were counted in a Neubauer chamber as previously described. Results were expressed as the percentage of lysed parasites (%L) relative to the number of parasites in the control: %L = [1 − (CDt/(CDc)] × 100, where CDt and CDc represent the cellular density of treated and untreated parasites, respectively.
(§2) The results presented are representative of three to four separate experiments, performed in duplicates or triplicates. All data are expressed as means ± standard errors of the mean (SEM). To calculate the IC50 values, the %I or %L values were plotted against the log of drug concentration (μM) and fitted with a straight line determined by a linear regression (Sigma Plot 10 software). The significance of differences was evaluated using Student' t test, taking a P < 0.05 as significant. Flow cytometry data were analyzed employing the WinMDI 2.9 software.

[2] = system: Trypanosoma cruzi epimastigotes (Tulahuen strain); assay: Growth inhibition of epimastigotes (cell counting, 4 days); assay type: cell-based; conditions: 96 h, read-out: Epimastigotes IC50
Description: as §1
(§3) Cells growth was assessed by counting the number of cells per mL of culture using a Neubauer chamber and was expressed as cellular density (CD). The percentage of inhibition (%I) was calculated as %I = {1 − [(CD4t − CD0)/(CD4c − CD0)]} × 100, where the different CDs represent the cellular density of CD4t, treated parasites on day 4; CD0, parasites on day 0; and CD4c, untreated parasites (control) on day 4.
as §2

[3] = Cytotoxicity assay (MTT, 48 h); assay type: cell-based; conditions: African green monkey, Vero cells
Description: Vero cells were cultivated with different concentrations of each compound (12.5–100.0 μM) or Bnz (3.0–3000 μM). After 48 h of incubation, cells were washed and viability was measured by the MTT assay as previously described. The selectivity index (SI) was calculated as the 50% cytotoxic concentration (CC50) obtained with Vero cells divided by the 50% inhibitory concentration (IC50) obtained with T. cruzi.

[4] = system: trypanothione reductase (TryR); assay: TryR activity in C1-treated epimastigotes; assay type: cell-based, Trypanosoma cruzi; conditions: control without C1 = 100%
Description: (§4) Epimastigotes of T. cruzi from a 4 days culture were incubated with C1 (7.5–22.5 μM) during 5–36 hours. Cells were harvested, washed and then the following biochemical assays were carried out.
(§5) (b) Determination of Antioxidant Enzymes Activity. The activities of superoxide dismutase (SOD), ascorbate peroxidase (APx), and trypanothione reductase (TryR) were assayed as previously established.
(§6) Protein concentration was determined according to the method described by Lowry et al.. These values were used to express the specific enzymatic activities as activity per mg of protein.

[5] = system: Epimastigotes of T. cruzi; assay: Parasite death by Annexin V-FITC/PI staining (flow cytometry); assay type: cell-based, Trypanosoma cruzi; conditions: for early apoptotic cells / late apoptotic cells: 22.5 μM; for early apoptotic cells: 0.8% at 0 h; for late apoptotic cells: 2.8% at 0 h; for viability at 22.5 µM: Trypanosoma cruzi, 95.9% for control (0 h), read-out: viable nonapoptotic cells
Description: as §4
Cell viability and phosphatidylserine (PS) exposure on the parasite surface were assessed by propidium iodide (PI) and Annexin V-fluorescein isothiocyanate (FITC) staining, according to the manufacturer's instructions (Invitrogen). Epimastigotes exposed to 30% fresh human serum for 2 h at 28°C were used as positive control. Parasites were analysed by flow cytometry acquiring 20,000 events per sample.

[6] = system: Epimastigotes of T. cruzi; assay: Cytochrome c release (Western blot, densitometry); assay type: cell-based, Trypanosoma cruzi; conditions: 22.5 μM, at 36 h, relative to level detected after 24 h
Description: as §4
(§7) Mitochondrial membrane potential was assessed using two well-established assays: 3,3′-dihexyloxacarbocyanine iodide (DiOC6) staining and the cytochrome c release.
To evaluate the cytochrome c release, parasites (3 × 10^8) were resuspended in PBS containing 200 μg/mL digitonin, incubated on ice for 15 min and then centrifuged at 9 000 ×g for 10 min at 4°C. Both, mitochondrial-rich fraction (pellet, resuspended in 50 μL of PBS) and cytosolic fraction (150 μL) were subjected to Western-blot analysis for cytochrome c. Protein extracts (10 μL and 30 μL of mitochondrial and cytosolic fractions, resp.) were resolved by 14% SDS/PAGE, transferred to nitrocellulose membranes, blocked with 3% skimmed milk in PBS, and then incubated with specific antibodies, according to the protocol of Piacenza et al.. Relative intensities of bands were quantified by densitometry using Scion Image software (Scion). Results were expressed in arbitrary units.

[7] = system: Epimastigotes of T. cruzi; assay: Mitochondrial membrane potential (DiOC6 staining); assay type: cell-based, Trypanosoma cruzi; conditions: 22.5 μM, 31% for the control (0 h)
Description: as §4, §7
For the DiOC6 assay, epimastigotes (10^6) were permeabilized for 20 min at room temperature with 0.01% saponin, washed, and incubated with 30 nM DiOC6 for 30 min at 37°C. The positive control was done with 250 nM trifluoromethoxy carbonyl cyanide phenyl hydrazone (FCCP) as depolarizing agent. Stained cells were analyzed by flow cytometry with an excitation wavelength of 484 nm and an emission wavelength of 511 nm.

[8] = system: Epimastigotes of T. cruzi; assay: Intracellular oxidative activity (H2DCFDA flow cytometry); assay type: cell-based, Trypanosoma cruzi; conditions: 7.5, 15 and 22.5 μM; 5, 12 and 24 h; data not shown
Description: as §4
(a) Assay of Intracellular Oxidative Activity. The intracellular oxidative activity was assessed by flow cytometry using the oxidant-sensitive fluorescent probe H2DCFDA. As a positive control cells were treated with 0.1 mM H2O2. Stained cells were then analyzed by a FACSCalibur flow cytometer (Becton Dickinson) with an excitation wavelength of 480 nm and an emission wavelength of 530 nm. Flow cytometry results were expressed by the ratio Gmt/Gmc, where Gmt and Gmc correspond to the geometric mean of histograms obtained for treated and untreated cells, respectively.

[9] = system: ascorbate peroxidase (APx); assay: APx activity in C1-treated epimastigotes; assay type: cell-based, Trypanosoma cruzi; conditions: control without C1 = 100%
Description: as §4, §5, §6

[10] = system: amastigotes (Tulahuen strain expressing the β-galactosidase gene) in J774 cells; assay: Amastigote assay in infected J774 cells (β-galactosidase, CPRG); assay type: cell-based; conditions: Trypanosoma cruzi, 168 h, 7 days
Description: as §1
For analysis of amastigotes, J774 cells were infected with bloodstream trypomastigotes expressing the β-galactosidase gene at a parasite: cell ratio of 10 : 1. After 24 h, cell cultures were washed and each compound (2 to 100 μM) was added in fresh RPMI medium without phenol red (to avoid interference with absorbance readings at 570 nm). After 7 days, the assay was developed as described. The galactosidase activity was quantified using CPRG as substrate and measuring absorbance at 570 nm in a Microplate Reader (Bio-Rad Laboratories). Since the assayed compounds are coloured, blanks including uninfected cells with different doses of each compound were performed. The percentage of inhibition was calculated as %I = {1 − [(A it − A nit)/(A ic − A nic)]} × 100, where A represents the mean A 570 value recorded for A it, treated infected cells; A nit, treated noninfected cells; A ic, untreated infected cells; and A nic, untreated noninfected cells.
as §2

[11] = system: superoxide dismutase (SOD); assay: SOD activity in C1-treated epimastigotes; assay type: cell-based, Trypanosoma cruzi; conditions: control without C1 = 100%
Description: as §4, §5, §6

[12] = system: Epimastigotes of T. cruzi; assay: Determination of total thiol groups (DTNB); assay type: cell-based, Trypanosoma cruzi
Description: as §4
(c) Determination of Total Thiol Groups. The thiol groups content was determined employing the chromogenic compound 5,5′-dithiobis-2-nitrobenzoate (DTNB), as already described.

Cyclic voltammetry = assay type: physicochemical
Description: Cyclic voltammograms for C1, C2, and C3 dissolved in 1% DMSO were carried out using an EQMAT instrument with an EQSOFT Processor, at a sweep rate of 0.2 V/s under a nitrogen atmosphere at room temperature, employing lithium perchlorate as supporting electrolyte. A three-electrode cell was used equipped with a vitreous carbon as working electrode, a gold wire as auxiliary electrode, and a saturated calomel as reference electrode.

T. cruzi = assay: Effect of DTT, ascorbic acid and GSH on anti-T. cruzi activity of C1; assay type: cell-based, Trypanosoma cruzi
Description: as §3

[13] = 1% DMSO, sweep rate 0.2 V/s, saturated calomel reference electrode

O=C(Cn1ccnc1[N+](=O)[O-])NCc1ccccc1 [Bnz, Benznidazole, reference compound]
IC50 [1]: 30.3 ± 2.85 µM | IC50 [2]: 5.49 ± 0.89 µM | CC50 at 48 h [3]: 82.8 ± 2.75 µM

O=c1c2ccccc2c(C(=S)Nc2ccccc2)c2n1CCN2 [Compound C1, N-phenyl-5-oxo-1,2,3,5-tetrahydroimidazo[1,2-b]isoquinolin-10-carbothioamide]
TryR activity (%) ([4]; 5 h, 7.5 µM): 152.23 ± 6.38 % | TryR activity (%) ([4]; 5 h, 15.0 µM): 177.17 ± 15.56 % | TryR activity (%) ([4]; 5 h, 22.5 µM): 143.89 ± 4.80 % | TryR activity (%) ([4]; 12 h, 7.5 µM): 188.60 ± 12.30 % | TryR activity (%) ([4]; 12 h, 15.0 µM): 251.62 ± 15.56 % | TryR activity (%) ([4]; 12 h, 22.5 µM): 190.55 ± 14.29 % | TryR activity (%) ([4]; 24 h, 7.5 µM): 165.23 ± 9.80 % | TryR activity (%) ([4]; 24 h, 15.0 µM): 198.27 ± 9.30 % | TryR activity (%) ([4]; 24 h, 22.5 µM): 163.56 ± 7.60 % | early apoptotic cells ([5]; 24 h): 8.7% | late apoptotic cells ([5]; 24 h): 4.9% | early apoptotic cells ([5]; 36 h): 51.0% | late apoptotic cells ([5]; 36 h): 7.7% | viability at 22.5 µM ([5]; 24 h): 84.8% | viability at 22.5 µM ([5]; 36 h): 40.4% | increase of cytochrome c in the parasite cytosol [6]: 2.5–3 times | Depolarized cells ([7]; 24 h): 77% | Depolarized cells ([7]; 36 h): 84% | IC50 [1]: 34.9 ± 1.2 µM | ratio Gmt/Gmc (H2DCFDA fluorescence) [8]: around 1 | APx activity (%) ([9]; 5 h, 7.5 µM): 111.26 ± 7.60% | APx activity (%) ([9]; 5 h, 15.0 µM): 98.31 ± 2.10% | APx activity (%) ([9]; 5 h, 22.5 µM): 105.20 ± 6.20% | APx activity (%) ([9]; 12 h, 7.5 µM): 98.30 ± 2.30% | APx activity (%) ([9]; 12 h, 15.0 µM): 95.91 ± 4.10% | APx activity (%) ([9]; 12 h, 22.5 µM): 93.48 ± 6.20% | APx activity (%) ([9]; 24 h, 7.5 µM): 108.35 ± 9.20% | APx activity (%) ([9]; 24 h, 15.0 µM): 105.30 ± 6.56% | APx activity (%) ([9]; 24 h, 22.5 µM): 96.25 ± 5.80% | IC50 [10]: 1.74 ± 0.3 µM | SOD activity (%) ([11]; 5 h, 7.5 µM): 95.85 ± 2.50% | SOD activity (%) ([11]; 5 h, 15.0 µM): 99.31 ± 4.30% | SOD activity (%) ([11]; 5 h, 22.5 µM): 90.09 ± 2.30% | SOD activity (%) ([11]; 12 h, 7.5 µM): 99.75 ± 2.90% | SOD activity (%) ([11]; 12 h, 15.0 µM): 103.92 ± 4.30% | SOD activity (%) ([11]; 12 h, 22.5 µM): 88.48 ± 3.20 % | SOD activity (%) ([11]; 24 h, 7.5 µM): 98.74 ± 7.30% | SOD activity (%) ([11]; 24 h, 15.0 µM): 89.78 ± 3.50 % | SOD activity (%) ([11]; 24 h, 22.5 µM): 78.27 ± 4.20 % | IC50 [2]: 1.49 ± 0.28 µM | decrease of low molecular mass thiols ([12]; 22.5 μM, 24 h of incubation): not more than 20% | level of low molecular mass thiols ([12]; all C1 concentrations tested, 5 and 12 h, data not shown): remain constant | anodic peak (irreversible oxidation) (Cyclic voltammetry; [13]): 0.78 V | cathodic peak (irreversible reduction) (Cyclic voltammetry; [13]): −1.04 V | effect of DTT and ascorbic acid on the inhibitory action of the drug (T. cruzi; C1 1 up to 2.5 μM, at the antioxidant concentrations tested): considerably enhanced | effect of GSH on the inhibitory effect of C1 (T. cruzi; GSH 5 μM): completely abrogated

O=c1c2ccccc2c(C(=S)Nc2ccc(Cl)cc2)c2n1CCN2 [Compound C2, N-(4-chlorophenyl)-5-oxo-1,2,3,5-tetrahydroimidazo[1,2-b]isoquinolin-10-carbothioamide]
IC50 [1]: 306 ± 15 µM | IC50 [10]: 3.63 ± 0.51 µM | IC50 [2]: 5.57 ± 0.53 µM

Cc1ccc(NC(=S)c2c3n(c(=O)c4ccccc24)CCN3)cc1 [Compound C3]
IC50 [1]: 246 ± 18 µM | IC50 [10]: 1.5 ± 0.32 µM | IC50 [2]: 1.5 ± 0.3 µM

O=C(Nc1ccccc1)c1c2n(c(=O)c3ccccc13)CCN2 [D, 5-oxo-N-phenyl-1,2,3,5-tetrahydroimidazo[1,2-b]isoquinolin-10-carboxamide]
IC50 [1]: > 300 µM | IC50 [10]: 11.4 ± 1.21 µM | IC50 [2]: > 25 µM

O=c1c2ccccc2cc2n1CCN2 [heterocycle precursor, 2,3-dihydroimidazo[1,2-b]isoquinolin-5(1-H)-one]
IC50 [2]: > 25 µM | cathodic and anodic peaks (Cyclic voltammetry; subjected to the same potentials as C1): Neither the cathodic nor the anodic peaks were measurable
